Earlier results as cited in patent US12115137B2, “Synergistic combinations of atorvastatin and cannabidiol (CBD)” (Indication BioScience LLC, priority 2016, dated 2024).

Assays:
[1] = molecular target: CYP2C19 (Homo sapiens, UniProt P33261); settings: Jiang et al. 2013
[2] = molecular target: CYP3A4 (Homo sapiens, UniProt P08684); settings: Yamaori et al. 2011
[3] = molecular target: CYP2C9 (Homo sapiens, UniProt P11712); settings: Jiang at 333 and references cited
[4] = oral, humans
[5] = with potent CYP3A4 inhibitors such as itraconazole
[6] = not given; remark: listed apart in the source

CYP2C19, sequence (P33261 whole entry): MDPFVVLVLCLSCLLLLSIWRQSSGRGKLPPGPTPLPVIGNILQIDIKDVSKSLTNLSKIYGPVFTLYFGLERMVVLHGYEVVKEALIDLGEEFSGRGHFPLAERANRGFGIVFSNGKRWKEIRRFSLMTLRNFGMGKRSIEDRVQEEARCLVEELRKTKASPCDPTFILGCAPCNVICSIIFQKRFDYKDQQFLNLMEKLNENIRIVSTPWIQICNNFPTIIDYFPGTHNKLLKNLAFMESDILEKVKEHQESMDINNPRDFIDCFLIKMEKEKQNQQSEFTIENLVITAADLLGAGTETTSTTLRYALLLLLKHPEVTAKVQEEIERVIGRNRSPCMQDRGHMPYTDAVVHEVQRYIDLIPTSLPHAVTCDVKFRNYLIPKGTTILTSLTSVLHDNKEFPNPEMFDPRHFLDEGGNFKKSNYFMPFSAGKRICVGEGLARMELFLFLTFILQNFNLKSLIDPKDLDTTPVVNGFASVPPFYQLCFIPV
CYP2C9, sequence (P11712 whole entry): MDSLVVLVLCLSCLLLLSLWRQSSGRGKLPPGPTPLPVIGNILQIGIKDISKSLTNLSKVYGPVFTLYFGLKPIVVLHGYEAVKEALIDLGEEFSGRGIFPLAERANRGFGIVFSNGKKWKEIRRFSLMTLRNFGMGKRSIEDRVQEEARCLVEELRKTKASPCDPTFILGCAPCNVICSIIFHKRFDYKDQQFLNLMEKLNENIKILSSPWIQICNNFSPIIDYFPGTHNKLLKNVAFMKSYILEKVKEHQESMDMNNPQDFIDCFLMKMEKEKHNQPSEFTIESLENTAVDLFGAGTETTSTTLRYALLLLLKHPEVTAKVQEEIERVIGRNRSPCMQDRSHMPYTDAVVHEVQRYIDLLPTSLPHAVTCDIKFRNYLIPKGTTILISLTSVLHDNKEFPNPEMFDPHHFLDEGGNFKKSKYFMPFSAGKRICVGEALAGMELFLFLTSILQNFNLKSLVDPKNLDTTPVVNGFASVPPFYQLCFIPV
CYP3A4, sequence (P08684 whole entry): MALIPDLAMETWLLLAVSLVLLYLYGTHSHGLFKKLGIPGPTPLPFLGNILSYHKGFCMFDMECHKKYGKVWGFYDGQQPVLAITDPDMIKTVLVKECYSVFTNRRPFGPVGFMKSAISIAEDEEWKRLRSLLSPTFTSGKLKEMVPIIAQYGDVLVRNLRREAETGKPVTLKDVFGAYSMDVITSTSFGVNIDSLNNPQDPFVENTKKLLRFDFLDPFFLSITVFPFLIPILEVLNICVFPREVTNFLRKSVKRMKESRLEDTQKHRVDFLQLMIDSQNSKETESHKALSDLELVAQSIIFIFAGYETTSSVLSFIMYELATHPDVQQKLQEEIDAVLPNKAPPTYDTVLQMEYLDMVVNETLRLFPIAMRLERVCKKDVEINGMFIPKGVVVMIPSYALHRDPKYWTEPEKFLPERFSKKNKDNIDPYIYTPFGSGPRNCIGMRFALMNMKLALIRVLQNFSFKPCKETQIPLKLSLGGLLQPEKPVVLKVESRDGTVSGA

C=C(C)[C@@H]1CCC(C)=C[C@H]1c1c(O)cc(CCCCC)cc1O [CBD, 2-[(1R,6R)-6-isopropenyl-3-methylcyclohex-2-en-1-yl]-5-pentylbenzene-1,3-diol]
inhibition of CYP2C19 [1]: potent inhibitor | inhibition of CYP3A4 [2]: potent inhibitor | increase in plasma concentration of CBD (with ketoconazole, a strong inhibitor of CYP3A4): about two-fold | reduction of CBD levels (with rifampin, a CYP3A4 inducer): 50-60% | inhibition of CYP2C9 [3]: potent inhibitor | bioavailability of CBD administered orally [4]: approximately 6%

CC(C)c1c(C(=O)Nc2ccccc2)c(-c2ccccc2)c(-c2ccc(F)cc2)n1CC[C@@H](O)C[C@@H](O)CC(=O)O [atorvastatin]
increase in statin serum concentration [5]: two- to four-fold

COCc1c(C(C)C)nc(C(C)C)c(/C=C/[C@@H](O)C[C@@H](O)CC(=O)O)c1-c1ccc(F)cc1 [cerivastatin]
deaths attributed to kidney failure from drug-related rhabdomyolysis ([6]; before market withdrawal in 2001): 52 deaths | rate of fatal rhabdomyolysis relative to other approved statins ([6]; compared with other approved statins): ten times more common
